Our source for the IC50 and EC50 values is patent US20170007610A1, “NOVEL HETEROBICYCLIC COMPOUNDS AS KAPPA OPIOID AGONISTS” (priority 2014, published 2017).

For assay [1], the target named is T1, kappa opioid receptor (Mus musculus, UniProt P33534).
T1 construct: from tissue; host or cells: mouse vas deferens (male Swiss Albino mice)
The assay is described as follows: Ex-vivo KOR agonistic activity, electrically stimulated mouse vas deferens (MVD) model. The procedure:
a) Ex-Vivo KOR Agonistic Activity Testing, Using Electrically Stimulated Mouse Vas Deferens (MVD) Model:
Ex-vivo, the kappa opioid receptor agonistic activity of test compounds were tested on the electrically stimulated mouse vas deferens (MVD) preparations (Henderson et al., Br. J. Pharmacol., 46, 764-766, 1972; Portoghese et al., Life Sci. 36, 801-805, 1985) and IC50 were determined. In general, vas deferentia were taken from male Swiss Albino mice (30-40 g) and suspended in 8 ml organ baths, at 31° C., containing modified Krebs-Henseleit solution, without magnesium sulphate. Each vas deferens was equilibrated for 45 min at 2.6 mN tension and then stimulated at supramaximal voltage with five 1 ms pulses, at a frequency of 0.1 Hz. Concentration-response curves were determined by cumulative dosing. Inhibitory Concentration, 50% (IC50) values were determined by Sigmoidal dose-response (variable slope) equation, using Prizm v 6.01. The kappa opioid receptor specificity was determined by rightward shift in concentration-response curves in presence of 1 nM norbinaltorphimine (norBNI), a selective kappa opioid receptor antagonist.

Assay [2] addresses T2, kappa opioid receptor (Homo sapiens, UniProt P41145).
T2 construct: grown in complete Ham's F-12 medium
The assay is described as follows: Invitro KOR agonistic activity, cAMP based functional assay. The format is cell-based.

Read-outs that look alike come from different tables or passages of the source.

T1 sequence (P33534 whole entry): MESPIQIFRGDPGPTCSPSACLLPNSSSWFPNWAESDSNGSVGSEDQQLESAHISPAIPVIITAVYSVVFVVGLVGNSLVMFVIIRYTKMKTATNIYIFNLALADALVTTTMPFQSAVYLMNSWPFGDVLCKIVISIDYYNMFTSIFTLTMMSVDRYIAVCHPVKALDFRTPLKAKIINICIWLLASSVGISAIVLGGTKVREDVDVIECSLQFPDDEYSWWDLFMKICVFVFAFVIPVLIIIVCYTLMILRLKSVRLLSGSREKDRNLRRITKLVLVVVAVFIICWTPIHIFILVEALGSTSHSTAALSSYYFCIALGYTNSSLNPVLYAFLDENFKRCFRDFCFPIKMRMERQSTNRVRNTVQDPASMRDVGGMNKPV
T2 sequence (P41145 whole entry): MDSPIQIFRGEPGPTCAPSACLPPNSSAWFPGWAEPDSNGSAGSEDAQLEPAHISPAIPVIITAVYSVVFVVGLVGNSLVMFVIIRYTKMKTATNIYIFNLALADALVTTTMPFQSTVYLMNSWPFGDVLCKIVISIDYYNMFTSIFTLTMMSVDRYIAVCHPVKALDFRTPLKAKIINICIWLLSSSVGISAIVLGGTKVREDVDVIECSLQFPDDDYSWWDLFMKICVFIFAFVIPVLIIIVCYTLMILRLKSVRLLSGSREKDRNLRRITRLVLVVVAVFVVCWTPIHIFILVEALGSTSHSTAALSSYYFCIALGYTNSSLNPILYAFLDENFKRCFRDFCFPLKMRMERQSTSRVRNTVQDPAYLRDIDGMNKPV

In turn, `CN(C(=O)COc1ccc2ccccc2n1)[C@H](CN1CC[C@H](O)C1)c1ccccc1` [Compound 1, N-((S)-2-((S)-3-hydroxypyrrolidin-1-yl)-1-phenylethyl)-N-methyl-2-(quinolin-2-yloxy)acetamide] gave an IC50 in assay [1] of 3.5 nM. For the same compound, the EC50 in assay [2] worked out at 0.022 nM.
The corresponding values for `CN(C(=O)COc1ccc2cc(NS(C)(=O)=O)ccc2n1)[C@H](CN1CC[C@H](O)C1)c1ccccc1` [Compound 2, N-((S)-2-((S)-3-hydroxypyrrolidin-1-yl)-1-phenylethyl)-N-methyl-2-((6-methylsulfonamido)quinolin-2-yloxy)acetamide] are 2590 nM and 4.93 nM.
For `CN(C(=O)COc1cc(NS(C)(=O)=O)c2ccccc2n1)[C@H](CN1CC[C@H](O)C1)c1ccccc1` [Compound 3, N-((S)-2-((S)-3-hydroxypyrrolidin-1-yl)-1-phenylethyl)-N-methyl-2-((4-methylsulfonamido)quinolin-2-yloxy)acetamide], in that order: 414 nM and 0.035 nM.
Turning to `CN(C(=O)COc1ccnc2ccc(NS(C)(=O)=O)cc12)[C@H](CN1CC[C@H](O)C1)c1ccccc1` [Compound 4, N-((S)-2-((S)-3-hydroxypyrrolidin-1-yl)-1-phenylethyl)-N-methyl-2-((6-methylsulfonamido)quinolin-4-yloxy)acetamide], the IC50 in assay [1] is 1500 nM. Also, a half-maximal response in assay [2] (EC50) required 1.21 nM.
In turn, `CN(C(=O)COc1ccc(NS(C)(=O)=O)c2ncccc12)[C@H](CN1CC[C@H](O)C1)c1ccccc1` [Compound 5, N-((S)-2-((S)-3-hydroxypyrrolidin-1-yl)-1-phenylethyl)-N-methyl-2-((8-methylsulfonamido)quinolin-5-yloxy)acetamide] showed an IC50 in assay [1] of 5.6 nM. This compound yielded an EC50 in assay [2] of 0.013 nM.
For the compound `CN(C(=O)COc1ccc([N+](=O)[O-])c2cccnc12)[C@H](CN1CC[C@H](O)C1)c1ccccc1` [Compound 7, N-((S)-2-((S)-3-hydroxypyrrolidin-1-yl)-1-phenylethyl)-N-methyl-2-((5-nitroquinolin-8-yl)oxy)acetamide], the IC50 in assay [1] came out at 0.84 nM. In assay [2], a half-maximal response (EC50) required 0.015 nM.
For `CN(C(=O)COc1ccc([N+](=O)[O-])c2c1NCCC2)[C@H](CN1CC[C@H](O)C1)c1ccccc1` [Compound 8, N-((S)-2-((S)-3-hydroxypyrrolidin-1-yl)-1-phenylethyl)-N-methyl-2-((5-nitroquinolin-1,2,3,4-tetrahydroquinolin-8-yl)oxy)acetamide], the IC50 in assay [1] worked out at 6.2 nM. The same compound returned an EC50 in assay [2] of 0.018 nM.
The corresponding values for `CN(C(=O)COc1nccc2ccccc12)[C@H](CN1CC[C@H](O)C1)c1ccccc1` [Compound 9, N-((S)-2-((S)-3-hydroxypyrrolidin-1-yl)-1-phenylethyl)-2-(isoquinolin-1-yloxy)-N-methylacetamide] are 13 nM and 0.012 nM.
The corresponding values for `CN(C(=O)COc1ncc(NS(C)(=O)=O)c2ccccc12)[C@H](CN1CC[C@H](O)C1)c1ccccc1` [Compound 10, N-((S)-2-((S)-3-hydroxypyrrolidin-1-yl)-1-phenylethyl)-N-methyl-2-((4-methylsulfonamido)isoquinolin-1-yloxy)acetamide] are 54 nM and 0.089 nM.
`CN(C(=O)COc1cccc2c1NCCC2)[C@H](CN1CC[C@H](O)C1)c1ccccc1` [Compound 11, N-((S)-2-((S)-3-hydroxypyrrolidin-1-yl)-1-phenylethyl)-N-methyl-2-(1,2,3,4-tetrahydroquinolin-8-yloxy)acetamide] gave an IC50 in assay [1] of 1.6 nM. The EC50 in assay [2] was 0.004 nM.
In assay [1], `CN(C(=O)COc1cccc2c1N(S(C)(=O)=O)CCC2)[C@H](CN1CC[C@H](O)C1)c1ccccc1` [Compound 12, N-((S)-2-((S)-3-hydroxypyrrolidin-1-yl)-1-phenylethyl)-N-methyl-2-((1-(methylsulfonyl)-1,2,3,4-tetrahydroquinolin-8-yl)oxy)acetamide] registered an IC50 of 2 nM. In assay [2], it took 0.005 nM to reach a half-maximal effect (EC50).
With `CN1CCCc2cccc(OCC(=O)N(C)[C@H](CN3CC[C@H](O)C3)c3ccccc3)c21` [Compound 13, N-((S)-2-((S)-3-hydroxypyrrolidin-1-yl)-1-phenylethyl)-N-methyl-2-((1-methyl-1,2,3,4-tetrahydroquinolin-8-yl)oxy)acetamide], in assay [1], the IC50 is 125 nM. The compound further gave an EC50 in assay [2] of 0.91 nM.
For `CN(C(=O)COc1ccc(NS(C)(=O)=O)c2c1NCCC2)[C@H](CN1CC[C@H](O)C1)c1ccccc1` [Compound 14, N-((S)-2-((S)-3-hydroxypyrrolidin-1-yl)-1-phenylethyl)-N-methyl-2-((5-(methylsulfonamido)-1,2,3,4-tetrahydroquinolin-8-yl)oxy)acetamide], in that order: 5.4 nM and 0.012 nM.
The corresponding values for `CN(C(=O)COc1ccc2occc2c1)[C@H](CN1CC[C@H](O)C1)c1ccccc1` [Compound 16] are 4 nM and 0.04 nM.
Turning to `CN(C(=O)COc1ccc2ccoc2c1)[C@H](CN1CC[C@H](O)C1)c1ccccc1` [Compound 17, 2-(benzofuran-6-yloxy)-N-((S)-2-((S)-3-hydroxypyrrolidin-1-yl)-1-phenylethyl)-N-methylacetamide], the IC50 in assay [1] turned out to be 7 nM. The EC50 in assay [2] came out at 0.012 nM.
`CN(C(=O)COc1ccc2c(c1)OCC2)[C@H](CN1CC[C@H](O)C1)c1ccccc1` [Compound 18, 2-((2,3-dihydrobenzofuran-6-yl)oxy)-N-((S)-2-((S)-3-hydroxypyrrolidin-1-yl)-1-phenylethyl)-N-methylacetamide] returned an IC50 in assay [1] of 8.2 nM. Further, in assay [2], the EC50 was determined as 0.07 nM.
For `CN(C(=O)COc1ccc2ncccc2c1)[C@H](CN1CC[C@H](O)C1)c1ccccc1` [Compound 19, N-((S)-2-((S)-3-hydroxypyrrolidin-1-yl)-1-phenylethyl)-N-methyl-2-(quinolin-6-yloxy)acetamide], the IC50 in assay [1] worked out at 135 nM. Also, in assay [2], the response was half-maximal at 1.31 nM (EC50).
With `CN(C(=O)COc1ccc2c(c1)CCCN2)[C@H](CN1CC[C@H](O)C1)c1ccccc1` [Compound 21, N-((S)-2-((S)-3-hydroxypyrrolidin-1-yl)-1-phenylethyl)-N-methyl-2-((1,2,3,4-tetrahydroquinolin-6-yl)oxy)acetamide], the IC50 in assay [1] was determined as 570 nM. Further, a half-maximal effect in assay [2] (EC50) was put at 1.23 nM.
In assay [1], `CNS(=O)(=O)Nc1ccc(OCC(=O)N(C)[C@H](CN2CC[C@H](O)C2)c2ccccc2)c2cccnc12` [Compound 23, N-((S)-2-((S)-3-hydroxypyrrolidin-1-yl)-1-phenylethyl)-N-methyl-2-((8-((N-methylsulfamoyl)amino)quinolin-5-yl)oxy)-acetamide] had an IC50 of 8.4 nM. The same compound yielded an EC50 in assay [2] of 0.017 nM.
For `CN(C(=O)COc1ccc(NS(=O)(=O)N(C)C)c2ncccc12)[C@H](CN1CC[C@H](O)C1)c1ccccc1` [Compound 24, 2-((8-((N,N-dimethylsulfamoyl)amino)quinolin-5-yl)oxy)-N-((S)-2-((S)-3-hydroxypyrrolidin-1-yl)-1-phenylethyl)-N-methyl-acetamide], in that order: 5 nM and 0.055 nM.
The corresponding values for `CCN(CC)S(=O)(=O)Nc1ccc(OCC(=O)N(C)[C@H](CN2CC[C@H](O)C2)c2ccccc2)c2cccnc12` [Compound 25, 2-((8-((N,N-diethylsulfamoyl)amino)quinolin-5-yl)oxy)-N-((S)-2-((S)-3-hydroxypyrrolidin-1-yl)-1-phenylethyl)-N-methyl-acetamide] are 8.1 nM and 0.003 nM.
In turn, `CN(C(=O)COc1ccc(NS(=O)(=O)CCl)c2ncccc12)[C@H](CN1CC[C@H](O)C1)c1ccccc1` [Compound 26] had an IC50 in assay [1] of 29 nM. This compound had an EC50 in assay [2] of 0.012 nM.
As to `CN(C(=O)COc1ccc(NS(C)(=O)=O)c2nccnc12)[C@H](CN1CC[C@H](O)C1)c1ccccc1` [Compound 27, N-((S)-2-((S)-3-hydroxypyrrolidin-1-yl-)-1-phenylethyl)-N-methyl-2-((8-(methylsulfonamido)quinoxain-5-yl)oxy)acetamide], in assay [1], the IC50 is 169 nM. Also, the EC50 in assay [2] was 2.11 nM.
In assay [1], `CN(C(=O)COc1ncc2ccc(Br)cc2n1)[C@H](CN1CC[C@H](O)C1)c1ccccc1` [Compound 28, 2-((7-bromoquinazolin-2-yl)oxy)-N-((S)-2-((S)-3-hydroxypyrrolidin-1-yl)-1-phenylethyl)-N-methylacetamide] showed an IC50 of 1490 nM. This compound yielded an EC50 in assay [2] of 1.42 nM.
The corresponding values for `CN(C(=O)COc1cccc2c1NCC2)[C@H](CN1CC[C@H](O)C1)c1ccccc1` [Compound 29, N-((S)-2-((S)-3-hydroxypyrrolidin-1-yl-)-1-phenylethyl)-2-(indolin-7-yloxy)-N-methylacetamide] are 147 nM and 0.11 nM.
As to `CN(C(=O)COc1ccc2c3c1CCCN3S(=O)(=O)N2)[C@H](CN1CC[C@H](O)C1)c1ccccc1` [Compound 30], the IC50 in assay [1] (electrically stimulated mouse vas deferens preparation, cumulative dosing, read-out: Ex-vivo IC50) came out at 9400 nM. Besides, the EC50 in assay [2] stood at 900 nM.
